*1 amine or outer side, *2 acyl side, *3 side chain or, on linkers, in order; H or OH if unused. Where a SMILES comes first, the peptide text is derived from it. Side-chain parts run from the residue outwards. [ ]: non-standard residue; d: D form. The star is where a group is joined. γGlu = O=C(O)[C@H](CCC(=O)[*:2])N[*:1]; Palmitoyl = CCCCCCCCCCCCCCCC(=O)*; Aib = CC(C)(N)C(=O)O
Tests used:
[1] = tested on: female diet-induced obese (DIO) C57BL/6NCrl mice; test: Body weight in DIO mice, 14 weeks of prefeeding with high-fat diet (method 2); type: in vivo
Experimental: Female C57BL/6NCrl mice were housed in groups in a specific pathogen-free barrier facility on a 12 h light/dark cycle with free access to water and high-fat diet. After 14 weeks on high-fat diet, mice were stratified to treatment groups (n=8), so that each group had similar mean body weight.
An aged-matched group with ad libitum access to standard chow and water was included as standard control group.
Before the experiment, mice were subcutaneously (s.c.) injected with vehicle solution and weighed for 3 days to acclimate them to the procedures.
Body weight was recorded daily.
Statistical analyses were performed with Everstat 6.0 by repeated measures two-way ANOVA and Dunnett's post-hoc analyses (glucose profile) and 1-way-ANOVA, followed by Dunnett's post-hoc test (body weight, body fat). Differences versus vehicle-treated DIO control mice were considered statistically significant at the p<0.05 level.
Female obese C57BL/6NCrl mice were treated for 3 weeks once daily subcutaneously in the late afternoon, prior the end of the light phase (12 h lights on) with 10 μg/kg SEQ ID NO: 9 and SEQ ID NO: 21 or vehicle. Body weight was recorded daily.

[2] = Solubility testing in buffer (HPLC-UV); settings: buffer
[3] = Chemical stability in solution, 7 days at 25° C. (% remaining peptide); settings: % remaining peptide after 7 days at 25° C.
Experimental: After that time course, the sample was centrifuged for 20 min at 4000 rpm and the supernatant was analysed with HPLC-UV. For determination of the amount of the remaining peptide, the peak areas of the target compound at t0 and t7 were compared, resulting in “% remaining peptide”, following the equation % remaining peptide=[(peak area peptide t7)×100]/peak area peptide t0.
The chemical stability is expressed as “% remaining peptide”.

[4] = Pharmacokinetic testing in mice, s.c.; settings: mouse, plasma, sc, 1 mg/kg
Experimental: Mice were dosed 1 mg/kg subcutaneously (s.c.). The mice were sacrified and blood samples were collected after 0.25, 0.5, 1, 2, 4, 8, 16 and 24 hours post application. Plasma samples were analyzed after protein precipitation via liquid chromatography mass spectrometry (LC/MS). PK parameters and half-life were calculated using WinonLin Version 5.2.1 (non-compartment model).

[5] = tested on: female NMRI-mice; test: Automated assessment of 22-hours feed intake in mice; type: in vivo
Experimental: Female NMRI-mice of a body weight between 20 and 30 g were used. Mice were adapted to housing conditions for at least one week and for at least one day single-caged in the assessment equipment, when basal data were recorded simultaneously. On the study day, test product was administered subcutaneously close to the lights-off phase (12 h lights off) and assessment of feed consumption was directly started afterwards. Assessment included continued monitoring over 22 hours, while data are processed as mean over every 30 min. Repetition of this procedure over several days was possible. Restriction of assessment to 22 hours was for practical reasons to allow for reweighing of animals, refilling of feed and water and drug administration between procedures. Results could be assessed as cumulated data over 22 hours or differentiated to 30 min intervals. […] Statistical analyses were performed with Everstat 6.0 by two-way ANOVA on repeated measures and Dunnett's post-hoc analyses. Differences were considered statistically significant at the p<0.05 level. […] Lights-off phase (dark phase) started 4 hours later. […].

[6] = tested on: female NMRI-mice; test: Gastric emptying and intestinal passage in mice; type: in vivo; settings: versus vehicle control
Experimental: Female NMRI-mice of a body weight between 20 and 30 g were used. Mice were adapted to housing conditions for at least one week. Mice were overnight fasted, while water remained available all the time. On the study day, mice were weighed, single-caged and allowed access to 500 mg of feed for 30 min, while water was removed. At the end of the […], remaining feed was removed and weighed. Then, the test compound/reference compound or its vehicle in the control group was administered subcutaneously. 60 min later, to allow the compound to reach relevant plasma exposure, a coloured, non-caloric bolus was instilled via gavage into the stomach. After another 30 min, the animals were sacrificed and the stomach and the small intestine prepared. The filled stomach was weighed, emptied, carefully cleaned and dried and reweighed. The stomach content, calculated as weight of filled subtracted by the weight of emptied stomach, indicated the degree of gastric emptying. The small intestine was straightened without force and measured in length. Then the distance from the gastric beginning of the gut to the tip of the farthest traveled intestinal content bolus was measured. The intestinal passage was given as ratio in percent of the latter distance and the total length of the small intestine. […] Statistical analyses were performed with Everstat 6.0 by 1-way-ANOVA, followed by Dunnett's as post-hoc test. Dunnett's Test was applied to compare versus vehicle control. Differences were considered statistically significant at the p<0.05 level.

[7] = tested on: female leptin-receptor deficient diabetic db/db mice; test: Blood glucose and HbA1c in leptin-receptor deficient diabetic db/db mice (method 3); type: in vivo
Procedure, shortened: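 Female db/db mice (9–10 weeks at arrival) dosed at 5 mL/kg for 4 weeks with free food and water. Tail blood without anaesthesia: glucose by hexokinase and HbA1c measured before and at end of treatment, plus a 24-h glucose profile; repeated-measures two-way ANOVA with Dunnett's versus vehicle db/db, p<0.05.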

[8] = Pharmacokinetic testing in Göttinger minipigs, s.c.; type: in vivo; settings: female, minipig, plasma, sc, Mini pigs, 0.1 mg/kg s.c.
Experimental: Female Göttinger minipigs were dosed 0.1 mg/kg subcutaneously (s.c.). Blood samples were collected after 0.25, 0.5, 1, 2, 4, 8, 24, 32, 48, 56 and 72 hours post application. Plasma samples were analyzed after protein precipitation via liquid chromatography mass spectrometry (LC/MS). PK parameters and half-life were calculated using WinonLin Version 5.2.1 (non-compartment model).

SMILES: CCCCCCCCCCCCCCCC(=O)N[C@@H](CCC(=O)NCCCC[C@H](NC(=O)[C@H](CCC(N)=O)NC(=O)[C@@H](NC(=O)[C@H](CO)NC(=O)[C@H](CC(C)C)NC(=O)[C@H](CC(=O)O)NC(=O)[C@H](CO)NC(=O)[C@@H](NC(=O)[C@H](Cc1ccccc1)NC(=O)[C@@H](NC(=O)CNC(=O)[C@H](CCC(=O)O)NC(=O)C(C)(C)NC(=O)[C@@H](N)Cc1ccc(O)cc1)[C@@H](C)O)[C@@H](C)O)[C@@H](C)CC)C(=O)N[C@@H](CCC(=O)O)C(=O)N[C@@H](CCCCN)C(=O)N[C@@H](CCCNC(=N)N)C(=O)N[C@@H](C)C(=O)N[C@@H](C)C(=O)NC(C)(C)C(=O)N[C@@H](CCC(=O)O)C(=O)N[C@@H](Cc1ccccc1)C(=O)N[C@H](C(=O)N[C@@H](CCC(=O)O)C(=O)N[C@@H](Cc1c[nH]c2ccccc12)C(=O)N[C@@H](CC(C)C)C(=O)N[C@@H](CCCCN)C(=O)N[C@@H](CC(N)=O)C(=O)N[C@H](C(=O)NCC(=O)N1CCC[C@H]1C(=O)N[C@@H](CO)C(=O)N[C@@H](CO)C(=O)NCC(=O)N[C@@H](C)C(=O)N1CCC[C@H]1C(=O)N1CCC[C@H]1C(=O)N1CCC[C@H]1C(=O)N[C@@H](CO)C(N)=O)[C@@H](C)O)[C@@H](C)CC)C(=O)O [SEQ ID NO: 9, Y-Aib-E-G-T-F-T-S-D-L-S-I-Q-K(γE-x53)-E-K-R-A-A-Aib-E-F-I-E-W-L-K-N-T-G-P-S-S-G-A-P-P-P-S-NH2] (H-Y[Aib]EGTFTSDLSIQK([γGlu-Palmitoyl])EKRAA[Aib]EFIEWLKNTGPSSGAPPPS-NH2)
- decrease of body weight, relative change from baseline ([1]; 10 μg/kg s.c. once daily, 3 weeks): up to 15.1%
- Overall weight change ([1]; 10 μg/kg, 3-week treatment, mean ± SEM): -6.2 ± 0.4 g
- solubility at 2 h ([2]; pH 4.5): > 1000 µg/mL
- solubility at 2 h ([2]; pH 7.4): > 1000 µg/mL
- Stability (pH 4.5) ([3]; pH 4.5): 92.5%
- Stability (pH 7.4) ([3]; pH 7.4): 97.7%
- Cmax [4]: 5470 ng/mL
- half-life [4]: 4.1 h
- reduction of feed intake after 22 hours ([5]; 3 μg/kg s.c. (not significant, p=0.78)): 11%
- reduction of feed intake after 22 hours ([5]; 10 μg/kg s.c.): 62%
- increase of remaining gastric contents ([6]; 1 μg/kg s.c.): 32%
- reduction of intestinal passage ([6]; 1 μg/kg s.c.): 49%
- increase of remaining gastric contents ([6]; 3 μg/kg s.c.): 79%
- reduction of intestinal passage ([6]; 3 μg/kg s.c.): 62%
- increase of remaining gastric contents ([6]; 10 μg/kg s.c.): 111%
- reduction of intestinal passage ([6]; 10 μg/kg s.c.): 64%
- HbA1c level versus db/db control mice at the end of the study ([7]; 10, 30 and 100 μg/kg s.c. once daily, 4 weeks, all three doses): lower HbA1c level
- blood glucose level versus db control mice at the end of the study ([7]; 10, 30 or 100 μg/kg s.c. once daily, 4 weeks): significant lower blood glucose level
- blood glucose after 4 weeks of treatment ([7]; 10, 30 or 100 μg/kg s.c. once daily, 4 weeks, compared with liraglutide): strong and dose-dependent decrease in blood glucose, superior to liraglutide in the medium and highest dose
- blood glucose compared to db/db control mice, 24 h profile ([7]; single 100 μg/kg s.c., fed db/db mice): significant decrease in blood glucose
- Cmax [8]: 278 ng/mL
- half-life [8]: 12.2 h

Source: US9670261B2 (Sanofi, priority 2012, dated 2017)
